pEC50, pIC50: −log10 of the molar value. Read-outs that look alike come from different tables or passages of the source. Blank lines part the entries; values can stand above or below the compound they belong to.
Key:
[1] = target: T1, GSPT1 HiBiT tag protein in HEK293 cells (Homo sapiens, UniProt P15170+Q96SW2); experiment: hGSPT1 HiBiT assay; type: cell-based; details: 4 hrs incubation, class symbols, read-out: GSPT1 HiBit EC50
T1 construct: HEK293_hGSPT1_HiBiT tagged cells were generated using CRISPR-Cas12a technology; endogenous in cells; host or cells: HEK293 (genome-edited at the GSPT1 locus, HiBiT knock-in)
Protocol: hGSPT1 HiBiT cell line. HEK293_hGSPT1_HiBiT tagged cells were generated using CRISPR-Cas12a technology. Briefly, ˜400,000 HEK293 cells were transiently co-transfecting with precomplexed ribonuclear proteins (RNPs) consisting of 80 pmol of crRNA (IDT), 62 pmol of Cas12a protein (IDT), 3 ug of ssODN donor (IDT; AItR™ modifications), 78 pmol of electroporation enhancer (IDT), and 200 ng of pMaxGFP(Lonza). The transfection was performed via nucleofection (Lonza, 4D-Nucleofector™ X-unit) using solution P3 and program CM-130 in a small (20 ul) cuvette according to the manufacturer's recommended protocol. Five days post-nucleofection, cells were single cell sorted for GFP+(transfected) cells by FACs in 96-well plates and clonally selected. Clones were screened and verified for the desired modification via targeted deep sequencing using gene specific primers with partial Illumina adapter overhangs as previously described.^58 In brief, clonal cell pellets were harvested, lysed and used to generate gene specific amplicons with partial Illumina adapters in PCR #1. Amplicons were indexed in PCR #2 and pooled with other targeted amplicons for other loci to create sequence diversity. Additionally, 10% PhiX Sequencing Control V3 (Illumina) was added to the pooled amplicon library prior to running the sample on an Miseq Sequencer System (Illumina) to generate paired 2×250 bp reads. Samples were demultiplexed using the index sequences, fastq files were generated, and NGS analysis was performed using CRIS.py.^59 Final clones were authenticated using the PowerPlex® Fusion System (Promega) performed at the Hartwell Center (St. Jude) and tested negative for mycoplasma by the MycoAlert™Plus Mycoplasma Detection Kit (Lonza). Editing construct sequences and screening primers are listed below in Table 4.
hGSPT1 HiBiT assay. […] After 4 hrs incubation, the level of GSPT1 HiBiT tag protein was evaluated using Nano-Glo® HiBiT Lytic Detection System (Promega) according to the manufacturer's instruction.

[2] = target: T2, 6XHis-CRBN-DDB1 protein (Homo sapiens, UniProt Q96SW2); experiment: CRBN fluorescence polarization assay; type: binding; details: class symbols; read-out: CRBN FP IC50
T2 construct: 6XHis (N)
Protocol: 6XHis-CRBN-DDB1 protein (200 nM) and Cy5-O-Len probe (30 nM) were combined in 20 mM HEPES pH 7, 150 mM NaCl, 0.005% Tween-20 assay buffer. […] The plates were incubated in the dark for 1 hour at room temperature and then read on an Envision plate reader (PerkinElmer, Massachusetts, USA).

[3] = Aqueous solubility assay; type: physicochemical; details: pH = 7.4, in triplicate
Protocol: The storage plate was sealed and incubated at RT for 18 h. The suspension was then filtered through a 96-well filter plate (pION Inc., Woburn, MA). 75 μL of filtrate was mixed with 75 μL 1-propanol to make the sample plate, and the UV spectrum of the sample plate was read. Calculations were carried out with μSOL Evolution software based on the area under the curve (AUC) of the UV spectrum of the sample and reference plates. All compounds were tested in triplicate.

[4] = target: T3, GSPT1 (Homo sapiens, UniProt P15170+Q96SW2); experiment: Immunoblot analysis of GSPT1 degradation in MV4-11 cells; type: cell-based; design: Dmax: dose or concentration left out as unconfirmed
T3 construct: endogenous in cells; host or cells: MV4-11
Protocol: (§1) MV4-11 cells were seeded in 6-well plates (1×10^6 cells per well). After overnight incubation, the cells were treated with indicated concentrations for specific timepoints. […] After blocking the membrane with LI-COR TBS blocking buffer and incubation in primary antibody overnight, the corresponding protein signals were detected using IRDye secondary antibodies and Odyssey Imaging System. Image Studio Lite Ver 5.2 was used for blot quantification. […] IRDye®, 800CW Goat anti-Mouse IgG Secondary Antibody and IRDye® 680RD Goat anti-Rabbit IgG Secondary Antibody were used as secondary antibodies.

[5] = system: MV4-11 cells; experiment: Lenalidomide competition assay; type: cell-based, human; details: lenalidomide 10 μM, 3 days
[6] = system: caspase 3/7 activity in Mv4:11 cells; experiment: Caspase 3/7 activity assay; type: cell-based, human; details: Caspase-Glo, time points 4, 8 and 24 hours; 10 and 100 nM
[7] = target: T4, IKZF1 (Homo sapiens, UniProt Q13422); experiment: Immunoblot analysis of IKZF1 degradation in MV4-11 cells; type: cell-based; details: for IKZF1 degradation at 4 hours: any of the concentrations tested
T4 construct: endogenous in cells; host or cells: MV4-11
Protocol: as §1

[8] = system: MV4-11 cells; experiment: MV-4-11 cell viability assay; details: for pEC50: Homo sapiens
[9] = Pharmacokinetics study in CD1 mice; type: in vivo; details: 3 mg/kg IV
Protocol: Healthy female CD1 mice (8-12 weeks old) weighing between 20 to 30 g were procured from Global, India. Three mice were housed in each cage. Temperature and humidity were maintained at 22±3° C. and 30-70%, respectively and illumination was controlled to give a sequence of 12 hr light and 12 hr dark cycle. Temperature and humidity were recorded by auto-controlled data logger system. All the animals were provided laboratory rodent diet (Envigo Research private Ltd, Hyderabad). Reverse osmosis water treated with ultraviolet light was provided ad libitum. Formulation vehicle: 5% v/v NMP: 5% v/v Solute HS-15 and 90% v/v normal saline. […] The dosing volume for intravenous was 5 mL/kg and for oral administration 10 mL/kg. Blood samples (approximately 60 μL) were collected under light isoflurane anesthesia (Surgivet®) from retro orbital plexus from a set of three mice at 0.08 (for IV only), 0.25, 0.5, 1, 2, 4, 6 (for PO only), 8, 12 and 24 hr. Immediately after blood collection, plasma was harvested by centrifugation at 4000 rpm, 10 min at […] and samples were stored at −70±10° C. until bioanalysis. […] Non-Compartmental-Analysis tool of Phoenix WinNonlin® (Version 8.0) was used to assess the pharmacokinetic parameters. Peak plasma concentration (Cmax) and time for the peak plasma concentration (Tmax) were the observed values. The areas under the concentration time curve (AUClast and AUCinf) were calculated by linear trapezoidal rule. The terminal elimination rate constant, ke was determined by regression analysis of the linear terminal portion of the log plasma concentration-time curve. Clearance was estimated as Dose/AUCinf and Vss as CL*MRT. The oral bioavailability was calculated as ratio of dose normalized AUC of oral and intravenous group multiplied by 100.

[10] = MV4-11, 72 h, read-out: MV4-11 EC50
[11] = MV4-11, read-out: antiproliferative activity in MV4-11, EC50

T4 sequence (Q96SW2 whole entry partner): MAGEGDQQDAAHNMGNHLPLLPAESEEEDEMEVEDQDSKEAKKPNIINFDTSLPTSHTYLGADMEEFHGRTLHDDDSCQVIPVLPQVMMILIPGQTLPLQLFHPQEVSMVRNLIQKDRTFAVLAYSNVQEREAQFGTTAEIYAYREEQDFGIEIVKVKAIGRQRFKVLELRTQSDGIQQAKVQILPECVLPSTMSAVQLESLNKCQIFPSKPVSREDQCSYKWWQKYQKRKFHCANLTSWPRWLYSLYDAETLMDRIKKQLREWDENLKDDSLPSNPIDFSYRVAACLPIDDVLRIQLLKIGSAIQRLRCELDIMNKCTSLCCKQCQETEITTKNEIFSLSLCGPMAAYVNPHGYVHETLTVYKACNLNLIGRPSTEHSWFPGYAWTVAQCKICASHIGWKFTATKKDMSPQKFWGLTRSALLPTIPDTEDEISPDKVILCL
T4 sequence (Q16531 2-1140 partner limits assumed): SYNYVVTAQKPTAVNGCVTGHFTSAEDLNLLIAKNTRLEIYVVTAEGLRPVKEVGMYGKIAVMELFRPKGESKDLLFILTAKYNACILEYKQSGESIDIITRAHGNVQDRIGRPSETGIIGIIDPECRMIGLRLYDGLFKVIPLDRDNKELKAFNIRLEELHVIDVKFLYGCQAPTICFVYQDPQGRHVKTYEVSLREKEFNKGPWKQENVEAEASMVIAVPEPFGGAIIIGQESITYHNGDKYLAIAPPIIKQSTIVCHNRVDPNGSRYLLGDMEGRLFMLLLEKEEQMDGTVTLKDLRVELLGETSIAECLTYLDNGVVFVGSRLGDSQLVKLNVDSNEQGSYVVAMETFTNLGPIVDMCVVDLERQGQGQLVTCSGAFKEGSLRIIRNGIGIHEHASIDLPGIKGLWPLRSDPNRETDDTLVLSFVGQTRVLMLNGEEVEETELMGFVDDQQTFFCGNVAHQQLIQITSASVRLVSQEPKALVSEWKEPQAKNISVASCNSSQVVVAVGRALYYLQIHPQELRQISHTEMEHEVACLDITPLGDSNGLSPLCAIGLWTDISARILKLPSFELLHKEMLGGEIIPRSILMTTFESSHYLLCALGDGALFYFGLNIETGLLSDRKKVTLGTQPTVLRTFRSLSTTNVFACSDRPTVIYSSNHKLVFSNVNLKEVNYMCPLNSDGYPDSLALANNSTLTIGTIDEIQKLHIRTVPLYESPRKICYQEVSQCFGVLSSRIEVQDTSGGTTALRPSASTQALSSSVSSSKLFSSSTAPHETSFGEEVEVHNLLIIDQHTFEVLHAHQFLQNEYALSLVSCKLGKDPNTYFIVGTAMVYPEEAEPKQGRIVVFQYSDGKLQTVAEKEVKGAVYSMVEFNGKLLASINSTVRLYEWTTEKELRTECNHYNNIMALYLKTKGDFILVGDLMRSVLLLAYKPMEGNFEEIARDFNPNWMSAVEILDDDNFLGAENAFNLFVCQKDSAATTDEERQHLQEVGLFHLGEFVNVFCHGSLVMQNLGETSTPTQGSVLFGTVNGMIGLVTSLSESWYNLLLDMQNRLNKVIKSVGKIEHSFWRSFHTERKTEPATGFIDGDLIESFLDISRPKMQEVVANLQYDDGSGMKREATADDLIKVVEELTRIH
T4 sequence (Q13422 whole entry): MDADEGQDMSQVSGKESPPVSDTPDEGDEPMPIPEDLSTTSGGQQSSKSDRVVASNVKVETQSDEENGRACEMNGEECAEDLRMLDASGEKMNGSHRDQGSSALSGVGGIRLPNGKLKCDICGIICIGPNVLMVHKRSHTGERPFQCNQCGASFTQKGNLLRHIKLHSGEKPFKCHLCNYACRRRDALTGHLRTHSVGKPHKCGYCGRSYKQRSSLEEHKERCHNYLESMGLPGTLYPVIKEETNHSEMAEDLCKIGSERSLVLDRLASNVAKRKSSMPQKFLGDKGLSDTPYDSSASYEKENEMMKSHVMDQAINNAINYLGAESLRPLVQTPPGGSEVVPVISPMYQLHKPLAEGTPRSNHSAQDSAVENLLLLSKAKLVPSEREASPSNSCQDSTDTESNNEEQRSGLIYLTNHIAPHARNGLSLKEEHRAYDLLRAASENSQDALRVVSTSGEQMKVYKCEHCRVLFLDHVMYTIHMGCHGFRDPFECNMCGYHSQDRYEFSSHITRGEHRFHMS
T2 sequence (Q96SW2 whole entry): as the sequence (Q96SW2 whole entry partner) above
T2 sequence (Q16531 whole entry partner): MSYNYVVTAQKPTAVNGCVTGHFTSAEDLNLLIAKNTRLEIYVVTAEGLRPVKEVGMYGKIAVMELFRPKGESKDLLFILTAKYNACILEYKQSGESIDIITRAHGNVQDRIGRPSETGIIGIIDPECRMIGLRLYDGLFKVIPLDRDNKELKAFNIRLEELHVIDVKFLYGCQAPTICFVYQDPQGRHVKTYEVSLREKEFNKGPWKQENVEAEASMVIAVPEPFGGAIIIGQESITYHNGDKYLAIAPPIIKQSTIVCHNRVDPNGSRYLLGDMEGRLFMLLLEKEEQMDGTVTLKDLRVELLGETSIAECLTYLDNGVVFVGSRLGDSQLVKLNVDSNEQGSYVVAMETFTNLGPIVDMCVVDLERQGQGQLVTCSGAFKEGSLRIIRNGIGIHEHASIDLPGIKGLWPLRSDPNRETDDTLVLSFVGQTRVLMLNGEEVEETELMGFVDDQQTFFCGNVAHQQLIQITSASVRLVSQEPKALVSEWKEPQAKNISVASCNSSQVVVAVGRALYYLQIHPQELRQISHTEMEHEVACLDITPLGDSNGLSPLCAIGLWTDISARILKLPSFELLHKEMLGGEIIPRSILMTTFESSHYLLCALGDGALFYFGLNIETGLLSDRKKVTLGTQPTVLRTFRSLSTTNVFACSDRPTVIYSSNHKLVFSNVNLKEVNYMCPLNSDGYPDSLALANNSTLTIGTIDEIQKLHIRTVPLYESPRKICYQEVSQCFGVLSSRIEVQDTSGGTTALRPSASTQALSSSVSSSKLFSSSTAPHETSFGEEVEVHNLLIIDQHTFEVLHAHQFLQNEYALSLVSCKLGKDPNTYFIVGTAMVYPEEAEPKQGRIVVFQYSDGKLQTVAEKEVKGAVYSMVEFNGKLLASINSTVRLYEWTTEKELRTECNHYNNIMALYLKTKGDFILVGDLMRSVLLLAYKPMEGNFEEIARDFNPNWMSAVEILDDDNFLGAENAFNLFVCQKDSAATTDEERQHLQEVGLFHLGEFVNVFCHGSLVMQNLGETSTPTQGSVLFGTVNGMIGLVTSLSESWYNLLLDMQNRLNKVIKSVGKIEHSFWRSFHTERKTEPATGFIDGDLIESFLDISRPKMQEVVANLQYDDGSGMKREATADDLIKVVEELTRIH
T3 sequence (P15170 whole entry): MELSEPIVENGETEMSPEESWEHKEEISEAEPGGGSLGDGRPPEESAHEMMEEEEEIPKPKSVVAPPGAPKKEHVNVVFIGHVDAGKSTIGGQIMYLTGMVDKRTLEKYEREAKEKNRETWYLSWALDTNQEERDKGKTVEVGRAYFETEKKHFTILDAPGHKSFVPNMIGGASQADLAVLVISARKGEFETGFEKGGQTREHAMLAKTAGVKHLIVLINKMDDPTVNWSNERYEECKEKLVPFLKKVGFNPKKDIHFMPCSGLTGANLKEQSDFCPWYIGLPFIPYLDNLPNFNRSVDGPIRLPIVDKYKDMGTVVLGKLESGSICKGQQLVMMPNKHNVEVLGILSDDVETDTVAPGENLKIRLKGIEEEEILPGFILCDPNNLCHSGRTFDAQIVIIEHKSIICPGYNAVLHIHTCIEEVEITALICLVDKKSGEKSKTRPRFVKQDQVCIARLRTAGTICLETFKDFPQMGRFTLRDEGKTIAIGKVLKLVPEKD
T3 sequence (Q96SW2 whole entry): as the sequence (Q96SW2 whole entry partner) above
T3 sequence (Q16531 2-1140 partner limits assumed): as the sequence (Q16531 2-1140 partner limits assumed) above
T1 sequence (P15170 whole entry): as the sequence (P15170 whole entry) above
T1 sequence (Q96SW2 whole entry): as the sequence (Q96SW2 whole entry partner) above
T1 sequence (Q16531 2-1140 partner limits assumed): as the sequence (Q16531 2-1140 partner limits assumed) above

Structure (SMILES): O=C1CCC(N2Cc3cc(NS(=O)(=O)c4cccc(OC(F)(F)F)c4)ccc3C2=O)C(=O)N1 (stereo not drawn) [compound 43, N-(2-(2,6-dioxopiperidin-3-yl)-1-oxoisoindolin-5-yl)-3-(trifluoromethoxy)benzenesulfonamide]
DC50 [1]: < 1 µM

Structure (SMILES): O=C1CCC(N2Cc3cc(NS(=O)(=O)c4ccccc4C(F)(F)F)ccc3C2=O)C(=O)N1 (stereo not drawn) [compound 44, N-(2-(2,6-dioxopiperidin-3-yl)-1-oxoisoindolin-5-yl)-2-(trifluoromethyl)benzenesulfonamide]
DC50 [1]: > 10 µM

Structure (SMILES): O=C1CCC(N2Cc3cc(CNC(=O)C(F)(F)c4ccc(Cl)cc4)ccc3C2=O)C(=O)N1 (stereo not drawn) [CC90009, reference compound]
Sol. (aqueous solubility) [3]: 77 µM

Structure (SMILES): Cc1c(Cl)cccc1S(=O)(=O)Nc1ccc2c(c1)C(=O)N(C1CCC(=O)NC1=O)C2=O (stereo not drawn) [compound 5, 3-chloro-N-(2-(2,6-dioxopiperidin-3-yl)-1,3-dioxoisoindolin-5-yl)-2-methylbenzenesulfonamide]
Dmax ([4]; MV4-11, read-out: GSPT1 maximum degradation efficacy, Dmax): 60% | Sol. (aqueous solubility) [3]: 64 µM | antiproliferative effect in presence of lenalidomide [5]: abrogating the antiproliferative effects | time point at which caspase activation was observed [6]: 24 h | IKZF1 degradation at 4 hours [7]: did not significantly degrade IKZF1 | pEC50 [8, 10]: 7.28

Structure (SMILES): CC(C)(C)c1ccc(S(=O)(=O)Nc2ccc3c(c2)CN(C2CCC(=O)NC2=O)C3=O)cc1 (stereo not drawn) [compound 46]
DC50 [1]: < 1 µM

Structure (SMILES): O=C1CCC(N2C(=O)c3ccc(NS(=O)(=O)c4cccc(OC(F)(F)F)c4)cc3C2=O)C(=O)N1 (stereo not drawn) [compound 2, N-(2-(2,6-dioxopiperidin-3-yl)-1,3-dioxoisoindolin-5-yl)-3-(trifluoromethoxy)benzenesulfonamide]
effects on the protein levels of GSPT1 by immunoblotting ([4]; MV4-11 cells): no effects | Sol. (aqueous solubility) [3]: 64 µM | effects on the protein levels of IKZF1 by immunoblotting [7]: no effects | IKZF1 protein abundance after 24 hours [7]: dose-dependent decrease | pEC50 [8, 10]: < 5.00 | pEC50 [8, 11]: 7.28

Structure (SMILES): O=C1CCC(N2Cc3cc(CNC(=O)C(F)(F)c4ccc(Cl)cc4)ccc3C2=O)C(=O)N1 (stereo not drawn) [CC-90009, reference compound]
Dmax at 10 µM ([4]; MV4-11 cells, 4 h, at 10 μM, read-out: GSPT1 maximum degradation efficacy, Dmax): 74% | Dmax ([4]; MV4-11 cells, 24 h, read-out: GSPT1 Dmax): > 90% | Dmax ([7]; 24 h): > 90%

Structure (SMILES): O=C1CCC(N2C(=O)c3ccc(NS(=O)(=O)c4ccccc4OC(F)(F)F)cc3C2=O)C(=O)N1 (stereo not drawn) [compound 1, N-(2-(2,6-dioxopiperidin-3-yl)-1,3-dioxoisoindolin-5-yl)-2-(trifluoromethoxy)benzenesulfonamide]
Sol. (aqueous solubility) [3]: 67 µM | antiproliferative effect in presence of lenalidomide [5]: abrogating the antiproliferative effects | time point at which caspase activation was observed [6]: 8 h | IKZF1 degradation at 4 hours [7]: did not significantly degrade IKZF1 | IKZF1 protein abundance after 24 hours [7]: dose-dependent decrease | pEC50 [8, 10]: 8.82 | pEC50 [8, 11]: 8.82 | clearance [9]: 0.46 mL/min/kg | terminal elimination half-life (t1/2) [9]: 3.4 h | volume of distribution [9]: 0.15 L/kg

Structure (SMILES): O=C1CCC(N2Cc3cc(NS(=O)(=O)c4ccccc4)ccc3C2=O)C(=O)N1 (stereo not drawn) [compound 38, N-(2-(2,6-dioxopiperidin-3-yl)-1-oxoisoindolin-5-yl)benzenesulfonamide]
DC50 [1]: > 10 µM

Structure (SMILES): Cc1noc(C)c1S(=O)(=O)Nc1ccc2c(c1)C(=O)N(C1CCC(=O)NC1=O)C2=O (stereo not drawn) [compound 60, N-(2-(2,6-dioxopiperidin-3-yl)-1,3-dioxoisoindolin-5-yl)-3,5-dimethylisoxazole-4-sulfonamide]
pIC50 [2]: > 6.00

Now from value to compound, other results behind:

DC50 [1]: > 10 µM | pIC50 [2]: > 6.00
Structure (SMILES): O=C1CCC(N2C(=O)c3ccc(NS(=O)(=O)c4ccc(F)cc4Cl)cc3C2=O)C(=O)N1 (stereo not drawn) [compound 67, 2-chloro-N-(2-(2,6-dioxopiperidin-3-yl)-1,3-dioxoisoindolin-5-yl)-4-fluorobenzenesulfonamide]

pIC50 [2]: > 6.00
Structure (SMILES): O=C1CCC(N2C(=O)c3ccc(NS(=O)(=O)c4cccc(Cl)c4F)cc3C2=O)C(=O)N1 (stereo not drawn) [compound 61, 3-chloro-N-(2-(2,6-dioxopiperidin-3-yl)-1,3-dioxoisoindolin-5-yl)-2-fluorobenzenesulfonamide]

pIC50 [2]: > 6.00
Structure (SMILES): Cc1ccc(CS(=O)(=O)Nc2ccc3c(c2)C(=O)N(C2CCC(=O)NC2=O)C3=O)cc1 (stereo not drawn) [compound 58, N-(2-(2,6-dioxopiperidin-3-yl)-1,3-dioxoisoindolin-5-yl)-1-(p-tolyl)methanesulfonamide]

Sol. (aqueous solubility) [3]: 71 µM | pEC50 [8, 10]: < 5.00
Structure (SMILES): O=C1CCC(N2C(=O)c3ccc(NS(=O)(=O)c4ccccc4)cc3C2=O)C(=O)N1 (stereo not drawn) [compound 20, N-(2-(2,6-dioxopiperidin-3-yl)-1,3-dioxoisoindolin-5-yl)benzenesulfonamide]
cell potency in MV4-11 cells (in words) ([8]; MV4-11 cells): inactive

pEC50 [8, 10]: < 5.00
Structure (SMILES): Cc1ccc(S(=O)(=O)Nc2ccc3c(c2)C(=O)N(C2CCC(=O)NC2=O)C3=O)cc1Cl (stereo not drawn) [compound 7, 3-chloro-N-(2-(2,6-dioxopiperidin-3-yl)-1,3-dioxoisoindolin-5-yl)-4-methylbenzenesulfonamide]
